Laboratory results published in patent publication US9474749B2 (priority 2004, dated 2016).

Columns and labels:
BACE-2 = BACE-2 mRNA expression in HTB-11 cells (RT-PCR)
Experimental: (§1) SH-SY5Y human neuroblastoma cells (ATCC, USA) were cultured in Dulbecco's modified Eagle's medium/Ham's nutrient mixture (DMEM-F12) (Invitrogen, USA), and HTB-11 human neuroblastoma cells (ATCC, USA) were cultured in Minimum Essential Medium Alpha Medium (MEM-α) (Invitrogen, USA). […] All treatments were performed under a sterile hood.
(§2) After the treatment time-period, cells were harvested, and total RNA was extracted using RNeasy RNA Isolation kit (Qiagen) following the manufacturer's procedures. Total RNA yield was determined using a Spectrophotometer RNA/DNA calculator (Pharmacia Biotech). Total RNA concentration was then standardized for semi-quantitative RT-PCR, which was carried out in a Geneamp Thermocycler PCR System 9700 (P.E. Applied Biosystems). […] PCR products and a 100 bp DNA marker were then loaded in a 2% agarose gel stained with ethidium bromide. Gel electrophoresis was performed using a power-supply (E-C Apparatus Corp.) set at 110V with constant amperage for 1.5 hours. Gels were then photographed using a Gel Documentation System (UVP), and bands analyzed using Gel-Pro Analyzer (MediaCybernetics) on a P4 Windows machine.

BACE-1 = BACE-1 mRNA expression in HTB-11 cells (RT-PCR)
Experimental: as §1, §2

[1] = tested on: Mytilus edulis pedal ganglia; test: Endogenous morphine levels in excised pedal ganglia incubated in vitro (HPLC, RIA); type: cell-based; settings: for morphine per ganglion wet weight / ganglionic morphine levels versus control: in vitro; for morphine per ganglion wet weight: 5-hydroxytryptophan 1 μg/gm tissue, vehicle 2.1±0.44; for effect of enzyme inhibitor on precursor-induced morphine production: quinidine with tyramine, AMPT with tyrosine, concentration dependent; for morphine in ganglia: 10 μg of each compound, control 11.9; for ganglionic morphine levels versus control: 50 and 100 ng, 60 minutes; for ganglionic morphine levels after in vitro incubation: ganglionic wet weight, before: 1.08±0.27 (tyramine), 0.96±0.31 (tyrosine); for share of added precursor converted to morphine: in vitro ganglia incubation; for ganglionic morphine levels after exposure: 10^−6 M (FIG. 20)
[2] = tested on: Mytilus edulis pedal ganglia; test: Ganglionic morphine levels after injection into the foot of intact animals; settings: for pedal ganglionic morphine levels after injection: one hour after injection into the foot; for morphine levels after injection of inhibitor alone: 10^−4 M via the foot; for ganglionic morphine levels after injection: 10^−5 M in the foot, one hour, controls 1.02±0.24; for decrease in ganglionic morphine levels when the respective enzyme inhibitor was topically applied: AMPT or quinidine 10^−4 M on pedal ganglia after amino acid injection
Experimental: For in vivo precursor injection experiments, the animal's foot was injected with either reticuline or L-DOPA (0.1 and 1 μg/injection, respectively). Chemicals were injected by BD 1 cc syringes with 26 G needles. Each needle was inserted into that base of the foot just above the pedal ganglia.
(§3) For in vivo treatments, the animal's foot (20 animals per treatment) was injected with tyrosine (10^−5 M), tyramine (10^−5 M), or saline. Other animals were exposed to the enzyme inhibitors AMPT or quinidine alone or immediately following the respective foot injection. […] All chemicals were purchased from Sigma (St. Louis, Mo.).

pedal ganglia = test: NO release from excised pedal ganglia (NO-selective microprobe); type: cell-based, Mytilus edulis; settings: for NO Peak Level / NO Peak Time: ligand 10^−7 M
Experimental: For the nitric oxide assay, ten pedal ganglia (per determination) dissected from M. edulis were bathed in 1 mL sterile phosphate buffered saline (PBS). […] For the opiate receptor antagonist experiments, ganglia were pretreated with naloxone for 10 minutes prior to reticuline addition. NO release was monitored with an NO-selective microprobe manufactured by World Precision Instruments (Sarasota, Fla.). The sensor was positioned approximately 100 μm above the respective tissue surface. […] The NO detection system was calibrated daily. The probe was allowed to equilibrate for 10 minutes in the incubation medium free of tissue before being transferred to vials containing the ganglia for another 5 minutes. Manipulation and handling of the ganglia was only performed with glass instruments. Data was acquired using the Apollo-4000 free radical analyzer (World Precision Instruments, Sarasota, Fla.). The experimental values were then transferred to Sigma-Plot and -Stat (Jandel, Calif.) for graphic representation and evaluation.

mu3 opiate receptor = target: T1, mu3 opiate receptor (Homo sapiens, UniProt P35372); test: biochemical; type: binding
T1 construct: An additional 100 excised pedal ganglia and the human monocytes were separately washed and homogenized; host or cells: human monocytes
Experimental: For the nitric oxide assay, ten pedal ganglia (per determination) dissected from M. edulis were bathed in 1 mL sterile phosphate buffered saline (PBS). […] NO release was monitored with an NO-selective microprobe manufactured by World Precision Instruments (Sarasota, Fla.). The sensor was positioned approximately 100 μm above the respective tissue surface. […] The NO detection system was calibrated daily. The probe was allowed to equilibrate for 10 minutes in the incubation medium free of tissue before being transferred to vials containing the ganglia for another 5 minutes. Manipulation and handling of the ganglia was only performed with glass instruments. Data was acquired using the Apollo-4000 free radical analyzer (World Precision Instruments, Sarasota, Fla.). The experimental values were then transferred to Sigma-Plot and -Stat (Jandel, Calif.) for graphic representation and evaluation.
An additional 100 excised pedal ganglia and the human monocytes were separately washed and homogenized in 50 volumes of 0.32 M sucrose, pH 7.4, at 4° C. using a Brinkmann polytron (30 seconds, setting no. 5). The crude homogenate was centrifuged at 900×g for 10 minutes at 4° C., and the supernatant was reserved on ice. The whitish crude pellet was resuspended by homogenization (15 seconds, setting no. 5) in 30 volumes of 0.32 M sucrose/Tris-HCl buffer, pH 7.4, and centrifuged at 900×g for 10 minutes. The extraction procedure was repeated one more time, and the combined supernatants were centrifuged at 900×g for 10 minutes. The resulting supernatants (S1′) were used immediately. […] The P2 pellet was then re-suspended with a Dounce hand-held homogenizer (10 strokes) in 100 volumes of buffer. […]
Aliquots of membrane suspension (0.2 mL, 0.12 mg of membrane protein) were incubated in triplicate at 22° C. for 40 minutes with the appropriate radiolabeled ligand in the presence of dextrorphan (10 mM) or levorphanol (10 mM) in 10 mM Tris-HCl buffer, pH 7.4, containing 0.1% BSA and 150 mM KCl. […] Protein concentration was determined in membrane suspensions (prepared in the absence of BSA).

PMNs = test: PMN activation level by computer-assisted image analysis (form factor); settings: for level of PMN activation: IL-1β 2 ng/mL one hour, L-DOPA 10^−6 M, untreated 7.3±2.1%
Experimental: The morphological measurements of PMNs were based on cell area and perimeter determinations by the use of image analysis software (Compix, Mars, Pa.). […] The observational area used for measurement determinations and frame-grabbing was 0.4 μm in diameter.
After this incubation, the PMNs were evaluated for their activity level via computer-assisted image analysis.

[3] = tested on: human white blood cells / PMNs; test: Morphine production by human WBC and PMNs (HPLC, RIA); type: cell-based; settings: for WBC morphine concentrations versus untreated cells: P<0.001; for Morphine levels in media after the cells were removed: PMNs 3×10^6 cells, THP 100 μg, reticuline 50 μg, L-DOPA 100 μg, L-tyrosine 100 μg; for morphine concentrations in WBC: one-hour treatment, control 12.33±5.64
[4] = tested on: Mytilus edulis ganglia and hemolymph; test: Dopamine levels in ganglia and hemolymph (HPLC UV)
Experimental: Mytilus edulis collected from the local waters of Long Island Sound were maintained as described herein. […] The pedal ganglia were incubated with and without tyrosine or tyramine in the presence of quinidine, a CYP2D6 inhibitor, and alpha methyl para tyrosine (AMPT), which inhibits tyrosine hydroxylase.
as §3
After ganglionic dissection, ganglia were pooled into one eppendorf tube, 1 ml of 1 N HCl was added, and the tissue was sonicated by sonic dismemberator (Fisher scientific, USA). Homogenized tissue was then transferred to a 15 mL polypropylene centrifuge tube (Fisher Scientific, PA, USA). 5 mL of chloroform/isopropanol (9:1, v/v) was added, and the contents of the tube vigorously vortexed for 5 minutes at room temperature. […] Supernatant (water soluble layer) was dispatched into pre-siliconized 1.5 tubes (Midwest Scientific) and kept at 4° C. for immediate use for HPLC determination or stored at −80° C. for further analysis.

[5] = tested on: SK-N-SH neuroblastoma cell line; type: cell-based, human
Experimental: Cell viability was determined via Trypan blue exclusion. An inverted light microscope (Nikon) with a phase-contrast filter was used to observe the cells. Pictures of the cells were taken via a digital camera (Optronix) attached to the microscope ocular. Images were uploaded onto ImagePro Plus Software (Applied Biosystems), where cell viability was calculated based on both the number of cells covering the field and the cells that present as dead from the stain. In addition, ImagePro Plus was used for determining cellular morphology. The area and perimeter were found and used in the formula (4π*Area)/(Perimeter)^2, resulting in a value between 0 (a straight line) and 1 (a perfect circle).

[6] = tested on: SK-N-SH neuroblastoma cell line; test: NO release from SK-N-SH neuroblastoma cells
Experimental: The human SK-N-SH neuroblastoma cell line (ATCC #HTB-11) was used as a cellular model. Cells were propagated in Minimum Essential Medium alpha (MEMα) with 10% fetal bovine serum (FBS), 2% penicillin/streptomycin, 1.5 g/L NaHCO3, and 1.0 mM pyruvic acid. A 5% CO2 incubator (NAPCO) at 37° C. was used for maintenance of temperature and pH. […] When needed, cells were plated in 6- or 12-well plates using a hemocytometer (2×10^5 cells/well in 6-well plates or 1×10^5 cells/well in 12-well plates). Experimental manipulations were performed under sterile conditions under a lamina airflow hood after cells had adhered to the bottom of the plates.

[7] = tested on: SK-N-SH neuroblastoma cell line; test: Cellular morphology (Form Factor) of neuroblastoma cells; type: cell-based, human; settings: 10 μM
Mytilus animals = test: TNF-α-induced death of animals; settings: 10 U/mL TNF-α by injection, after 4 days
Experimental: 100 healthy Mytilus animals were treated with 10 U/mL of TNF-α by injection.

[8] = 1 μM morphine, 10 μM pre-treatment for twenty minutes

T1 sequence (P35372 1-314 isoform P35372-14): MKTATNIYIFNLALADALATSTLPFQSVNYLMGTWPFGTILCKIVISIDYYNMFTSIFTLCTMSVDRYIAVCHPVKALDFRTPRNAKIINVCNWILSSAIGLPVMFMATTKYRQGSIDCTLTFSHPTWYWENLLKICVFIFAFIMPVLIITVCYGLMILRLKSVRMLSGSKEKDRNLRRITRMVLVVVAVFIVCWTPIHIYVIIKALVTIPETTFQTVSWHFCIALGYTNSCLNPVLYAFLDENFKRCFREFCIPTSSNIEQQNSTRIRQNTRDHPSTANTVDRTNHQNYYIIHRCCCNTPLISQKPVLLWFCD

CC(=O)NC(C(=O)O)C(C)(C)SN=O (racemic) [SNAP, S-Nitroso-N-acetyl-D, L-penicillamine]
BACE-2 expression (BACE-2; SNAP 1, 5, 10 μM, 4- and 24-hour timepoints): up regulated in a concentration dependent manner BACE-2 expression | BACE-1 expression (BACE-1; SNAP 1, 5, 10 μM, 4- and 24-hour exposures): reduced BACE-1 expression in a concentration dependent manner

N[C@@H](Cc1c[nH]c2ccc(O)cc12)C(=O)O [5-hydroxytryptophan]
morphine per ganglion wet weight [1]: 2.1±0.41 ng morphine per ganglion | pedal ganglionic morphine levels after injection [2]: failed to increase ganglionic morphine levels

CC(N)(Cc1ccc(O)cc1)C(=O)O (stereo not drawn) [AMPT, alpha-methyl-para-tyrosine]
effect of enzyme inhibitor on precursor-induced morphine production [1]: less tyrosine-induced morphine production | morphine levels after injection of inhibitor alone [2]: did not exhibit any change in morphine levels

CN1CC[C@]23c4c5ccc(O)c4O[C@H]2[C@@H](O)CC[C@H]3[C@H]1C5 [Dihydromorphine, dihydromorphine]
NO Peak Level (pedal ganglia): 23.2 ± 3.7 nM | NO Peak Time (pedal ganglia): 0.9 ± 0.3 min | IC50 (mu3 opiate receptor): 19.1 ± 3.3 nM

N[C@@H](Cc1ccc(O)c(O)c1)C(=O)O [L-DOPA]
morphine in ganglia [1]: 9.31 ng/mL | ganglionic morphine levels versus control [1]: significantly higher | morphine per ganglion wet weight [1]: 3.6±0.45 ng morphine per ganglion | level of PMN activation (PMNs): 3.7±0.4% | percent of activated cells in mixed PMN population (PMNs; L-DOPA treated and IL-1β treated PMNs mixed 1:1): 12.5±3.7% | pedal ganglionic morphine levels after injection [2]: significantly increased pedal ganglionic morphine levels | WBC morphine concentrations versus untreated cells [3]: significantly increased WBC morphine concentrations | Morphine levels in media after the cells were removed [3]: 1.234 ± 0.26 | morphine concentrations in WBC [3]: 136.5±12.43 pg/million cells

N[C@@H](Cc1ccc(O)cc1)C(=O)O [L-tyrosine]
ganglionic morphine levels after in vitro incubation [1]: 2.39 ± 0.64 ng/g | share of added precursor converted to morphine [1]: About 7% | ganglionic morphine levels after injection [2]: 2.46±0.22 ng/g wet weight | decrease in ganglionic morphine levels when the respective enzyme inhibitor was topically applied [2]: 30% | Morphine levels in media after the cells were removed [3]: 2.223 ± 0.38

COC1=C[C@]23CCN(C)[C@H](Cc4ccc(OC)c(O)c42)C3=CC1=O [Salutaridine, salutaridine]
NO Peak Level (pedal ganglia): 18.5 ± 3.3 nM | NO Peak Time (pedal ganglia): 8.9 ± 1.3 min | IC50 (mu3 opiate receptor): > 1000 nM

Oc1ccc(CC2NCCc3cc(O)c(O)cc32)cc1O (stereo not drawn) [THP, norlaudanosoline]
ganglionic morphine levels after exposure [1]: significantly enhanced morphine levels | ganglionic morphine levels versus control [1]: significantly higher | share of added precursor converted to morphine [1]: About 20% | WBC morphine concentrations versus untreated cells [3]: significantly increased WBC morphine concentrations | Morphine levels in media after the cells were removed [3]: 2.028 ± 0.42 | morphine concentrations in WBC [3]: 90.25±10.42 pg/million cells

NCCc1ccc(O)cc1 [Tyramine, tyramine]
ganglionic morphine levels after in vitro incubation [1]: 2.51 ± 0.36 ng/g | share of added precursor converted to morphine [1]: About 7% | ganglionic DA level after tyramine injection ([4]; from 4.98±0.27): 9.17±1.21 μg/g wet weight | hemolymph DA level after tyramine ([4]; from 10.13±1.24): 16.47 ± 1.28 µg/mL | hemolymph DA (FIG. 19 legend) ([4]; tyramine 100 μg/mL incubation, PBS 10.13±0.34): 16.47±2.28 μg of DA/mL | ganglia DA (FIG. 19 legend) ([4]; tyramine injection 100 μg/animal, PBS 4.78±0.27): 9.17±1.21 μg of DA/g | ganglionic morphine levels after injection [2]: 3.28±0.45 ng/g wet weight | decrease in ganglionic morphine levels when the respective enzyme inhibitor was topically applied [2]: 25% | WBC morphine concentrations versus untreated cells [3]: significantly increased WBC morphine concentrations

CCc1cccc2cc(C(O)CNC(C)(C)C)oc12 (stereo not drawn) [bufuralol]
effect on precursor-induced morphine synthesis in PMNs [3]: significantly diminished synthesis of morphine

COc1ccc2c3c1O[C@H]1[C@@H](O)C=C[C@H]4[C@@H](C2)N(C)CC[C@@]341 [codeine]
ganglionic morphine levels after exposure [1]: significantly enhanced morphine levels

NCCc1ccc(O)c(O)c1 [dopamine]
morphine in ganglia [1]: 8.82 ng/mL | ganglionic morphine levels after exposure [1]: significantly enhanced morphine levels

CN1CC[C@]23c4c5ccc(O)c4O[C@H]2[C@@H](O)C=C[C@H]3[C@H]1C5.O=S(=O)(O)O [morphine sulfate]
confluency [5]: about 78% | peak NO release ([6]; morphine sulfate 5 μM, baseline 2 nM NO): 22.3 nM

C=CCN1CC[C@]23c4c5ccc(O)c4O[C@H]2C(=O)CC[C@@]3(O)[C@H]1C5 [naloxone]
effect of pre-treatment on morphine's effect on BACE-2 expression (BACE-2; [8]): blocked by naloxone | effect of naloxone pre-treatment on reticuline-stimulated NO release (pedal ganglia; naloxone 10^−6 M, reticuline 10^−7 M): blocking the reticuline (10^−7 M) stimulated release of NO | effect of pre-treatment on morphine's effect on BACE-1 expression (BACE-1; [8]): blocked by naloxone | level of activation in mixed PMN population, IL-1β-treated cells co-treated with naloxone (PMNs; mixed with L-DOPA-treated PMNs): 35.2±6.3% | effect on morphine neuroprotection, Form Factor [7]: reversal in morphine neuroprotection | NO release induced by 10^−6 M morphine in presence of blocker ([6]; naloxone 10^−6 M, L-NAME 10^−4 M): 3.2 nM NO

C=C[C@H]1C[N@@]2CC[C@H]1C[C@@H]2[C@@H](O)c1ccnc2ccc(OC)cc12 [quinidine]
effect of quinidine on morphine increase by THP, reticuline, DA, or codeine ([1]; quinidine 10^−6 M): significantly blocked by quinidine exposure | effect of enzyme inhibitor on precursor-induced morphine production [1]: less tyramine-induced morphine production | ganglia DA, tyramine and quinidine injections (FIG. 19 legend) ([4]; 100 μg/animal): 2.57±0.32 μg of DA/g | effect of quinidine on tyramine-induced DA level increases ([4]; ganglionic and hemolymph): blocked by quinidine exposure | hemolymph DA, tyramine and quinidine exposure (FIG. 19 legend) ([4]; tyramine 100 μg/mL, quinidine 10 μg/mL): 10.24 μg of DA/mL | morphine levels after injection of inhibitor alone [2]: did not exhibit any change in morphine levels | effect on precursor-induced morphine synthesis in PMNs [3]: blocked morphine synthesis

IL-1β: cytokine used to activate PMNs
level of PMN activation (PMNs): 43.4±5.7%

TNF-α
animals that died (Mytilus animals): about 20%

B1: IFNγ: interferon used to simulate an immune response (protein, UniProt P01579 24-161, looked up)
Interferon gamma: QDPYVKEAENLKKYFNAGHSDVADNGTLFLGILKNWKEESDRKIMQSQIVSFYFKLFKNFKDDQSIQKSVETIKEDMNVKFFNSNKKKRDDFEKLTNYSVTDLNVQRKAIHELIQVMAELSPAAKTGKRKRSQMLFRG
cellular death ([5]; IFNγ): did not cause significant cellular death
